Molecules are shown by their SMILES.

In this assay the target is T1, glutathione S-transferase (GST)-fused full-length human Syk protein (Homo sapiens, UniProt P43405).
T1 construct: (GST)-fused full-length human Syk protein; GST (glutathione S-transferase); purchased Carna Biosciences
In words: Syk enzyme assay. The conditions noted are these: Syk enzyme assay, Test Example 1; read-out: IC50 of Syk-inhibitory activity. In kind it is biochemical. As for the experimental part:
A glutathione S-transferase (GST)-fused full-length human Syk protein (Carna Biosciences), which had been generated using a Baculovirus expression system, was used in the Syk enzyme assay.
15 μl of a reaction solution (1.2 ng Syk, 20 mM HEPES, 10 mM MgCl2, 50 mM NaCl, 2 mM DTT, 0.05% BSA, pH 7.0) containing a Syk protein and a predetermined concentration of a test compound was shaken for 2 minutes, and it was then left at rest at room temperature for 13 minutes. Thereafter, 5 μl of Biotin-EDPDYEWPSA-NH2 (final concentration: 0.4 μM) serving as a substrate peptide and 5 μl of ATP (final concentration: 27 μM) were added to the reaction solution, and the obtained mixture was then shaken for 2 minutes. The reaction solution was further left at rest at room temperature for 40 minutes, so as to carry out an enzyme reaction.
Thereafter, 50 μl of a reaction termination solution [5 μg/ml Streptavidin, 0.18 μg/ml PT66-K, 30 mM HEPES (pH 7.0), 150 mM KF, 75 mM EDTA, 0.15% BSA, 0.075% Tween20], which contained Streptavidin-Xlent (Cisbio) and Mab PT66-K (Cisbio), was added to the reaction solution to terminate the enzyme reaction. At the same time, the reaction solution was left at rest at room temperature for 1 hour, so as to carry out an antigen-antibody reaction. Thereafter, using EnVision (PerkinElmer), the time-resolved fluorescence was measured at 615 nm and 665 nm, so that the phosphorylation of the substrate peptide was measured.
In addition, the following are standards for evaluating IC50 of Syk-inhibitory activity used in Table 21. • A: Up to 10 nM • B: 10 to 50 nM • C: 50 to 100 nM • D: 100 to 1000 nM The set of numbers (XYZ-xyz) given in each Example number column indicates the corresponding Example number (Example XYZ-xyz) in Table 21.
Regarding `NC(=O)c1cc(F)c(N[C@@H]2CCCC[C@@H]2N)nc1Nc1cncc(-c2cccc(F)c2)c1` (relative stereo) [Example 004-144, 6-(cis-2-aminocyclohexylamino)-5-fluoro-2-((5-(3-fluorophenyl)pyridin-3-yl)amino)-nicotinamide], the IC50 is less than 10 nM.

Regarding `NC(=O)c1cc(F)c(N[C@@H]2CCCC[C@@H]2N)nc1Nc1cncc(-c2ccc(F)cc2)c1` (relative stereo) [Example 004-145, 6-(cis-2-aminocyclohexylamino)-5-fluoro-2-((5-(4-fluorophenyl)pyridin-3-yl)amino)-nicotinamide], the IC50 was less than 10 nM.

Regarding `NC(=O)c1cc(F)c(N[C@@H]2CCCC[C@@H]2N)nc1Nc1cncc(-c2ccccc2Cl)c1` (relative stereo) [Example 004-146, 6-(cis-2-aminocyclohexylamino)-2-((5-(2-chlorophenyl)pyridin-3-yl)amino)-5-fluoronicotinamide], the concentration for half-maximal inhibition (IC50) was less than 10 nM.

For `NC(=O)c1cc(F)c(N[C@@H]2CCCC[C@@H]2N)nc1Nc1cncc(-c2cccc(Cl)c2)c1` (relative stereo) [Example 004-147, 6-(cis-2-aminocyclohexylamino)-2-((5-(3-chlorophenyl)pyridin-3-yl)amino)-5-fluoronicotinamide], the IC50 was less than 10 nM.

As to `NC(=O)c1cc(F)c(N[C@@H]2CCCC[C@@H]2N)nc1Nc1cncc(-c2ccc(Cl)cc2)c1` (relative stereo) [Example 004-148, 6-(cis-2-aminocyclohexylamino)-2-((5-(4-chlorophenyl)pyridin-3-yl)amino)-5-fluoronicotinamide], the half-inhibitory concentration (IC50) fell in the range of 10 to 50 nM.

On to `COCCOc1ncc(Nc2nc(N[C@@H]3CCCC[C@@H]3N)c(F)cc2C(N)=O)c2ccccc12` (relative stereo) [Example 004-150, 6-(cis-2-aminocyclohexylamino)-5-fluoro-2-((1-(2-methoxyethoxy)isoquinolin-4-yl)amino)-nicotinamide], for which the IC50 fell in the range of 100 to 1000 nM.

For `COC(C)CCOc1ncc(Nc2nc(N[C@@H]3CCCC[C@@H]3N)c(F)cc2C(N)=O)c2ccccc12` (relative stereo) [Example 004-151, 6-(cis-2-aminocyclohexylamino)-5-fluoro-2-((1-(3-methoxybutoxy)isoquinolin-4-yl)amino)-nicotinamide], the half-maximal inhibitory concentration (IC50) lay within 100 to 1000 nM.

For the molecule `CCOCCOCCOc1ncc(Nc2nc(N[C@@H]3CCCC[C@@H]3N)c(F)cc2C(N)=O)c2ccccc12` (relative stereo) [Example 004-152, 6-(cis-2-aminocyclohexylamino)-2-((1-(2-(2-ethoxyethoxy)ethoxy)isoquinolin-4-yl)amino)-5-fluoronicotinamide], the IC50 is 100 to 1000 nM.

For `COc1ncc(Nc2nc(N[C@@H]3CCCC[C@@H]3N)c(F)cc2C(N)=O)c2ccccc12` (relative stereo) [Example 004-153, 6-(cis-2-aminocyclohexylamino)-5-fluoro-2-((1-methoxyisoquinolin-4-yl)amino)-nicotinamide], the IC50 is 100 to 1000 nM.

On to `COCC(C)Oc1ncc(Nc2nc(N[C@@H]3CCCC[C@@H]3N)c(F)cc2C(N)=O)c2ccccc12` (relative stereo) [Example 004-154, 6-(cis-2-aminocyclohexylamino)-5-fluoro-2-((1-((1-methoxypropan-2-yl)oxy)isoquinolin-4-yl)amino)nicotinamide], for which the IC50 lay within 100 to 1000 nM.

With `COc1nccc2c(Nc3nc(N[C@@H]4CCCC[C@@H]4N)c(F)cc3C(N)=O)cccc12` (relative stereo) [Example 004-155, 6-(cis-2-aminocyclohexylamino)-5-fluoro-2-((1-methoxyisoquinolin-5-yl)amino)-nicotinamide], the IC50 is less than 10 nM.

`COCC(C)Oc1nccc2c(Nc3nc(N[C@@H]4CCCC[C@@H]4N)c(F)cc3C(N)=O)cccc12` (relative stereo) [Example 004-156, 6-(cis-2-aminocyclohexylamino)-5-fluoro-2-((1-((1-methoxypropan-2-yl)oxy)isoquinolin-5-yl)amino)nicotinamide]: the IC50 is less than 10 nM.

Turning to `COC(C)CCOc1nccc2c(Nc3nc(N[C@@H]4CCCC[C@@H]4N)c(F)cc3C(N)=O)cccc12` (relative stereo) [Example 004-157, 6-(cis-2-aminocyclohexylamino)-5-fluoro-2-((1-(3-methoxybutoxy)isoquinolin-5-yl)amino)-nicotinamide], the IC50 was in the range of 10 to 50 nM.

On to `CCOCCOCCOc1nccc2c(Nc3nc(N[C@@H]4CCCC[C@@H]4N)c(F)cc3C(N)=O)cccc12` (relative stereo) [Example 004-158, 6-(cis-2-aminocyclohexylamino)-2-((1-(2-(2-ethoxyethoxy)ethoxy)isoquinolin-5-yl)amino)-5-fluoronicotinamide], for which the IC50 lay in the range of 10 to 50 nM.

For the molecule `CCOc1nccc2cc(Nc3nc(N[C@@H]4CCCC[C@@H]4N)c(F)cc3C(N)=O)ccc12` (relative stereo) [Example 004-165, 6-(cis-2-aminocyclohexylamino)-2-((1-ethoxyisoquinolin-6-yl)amino)-5-fluoronicotinamide], the 50% inhibitory concentration (IC50) is less than 10 nM.

Take `CC(C)Oc1nccc2cc(Nc3nc(N[C@@H]4CCCC[C@@H]4N)c(F)cc3C(N)=O)ccc12` (relative stereo) [Example 004-166, 6-(cis-2-aminocyclohexylamino)-5-fluoro-2-((1-isopropoxyisoquinolin-6-yl)amino)-nicotinamide]: the 50% inhibitory concentration (IC50) was less than 10 nM.

As to `CC(C)COc1nccc2cc(Nc3nc(N[C@@H]4CCCC[C@@H]4N)c(F)cc3C(N)=O)ccc12` (relative stereo) [Example 004-167, 6-(cis-2-aminocyclohexylamino)-5-fluoro-2-((1-isobutoxyisoquinolin-6-yl)amino)-nicotinamide], the IC50 was less than 10 nM.

Consider `CCOCCOCCOc1nccc2cc(Nc3nc(N[C@@H]4CCCC[C@@H]4N)c(F)cc3C(N)=O)ccc12` (relative stereo) [Example 004-169, 6-(cis-2-aminocyclohexylamino)-2-((1-(2-(2-ethoxyethoxy)ethoxy)isoquinolin-6-yl)amino)-5-fluoronicotinamide], for which the concentration for half-maximal inhibition (IC50) was less than 10 nM.

For `CC(C)COCCOc1nccc2cc(Nc3nc(N[C@@H]4CCCC[C@@H]4N)c(F)cc3C(N)=O)ccc12` (relative stereo) [Example 004-170, 6-(cis-2-aminocyclohexylamino)-5-fluoro-2-((1-(2-isobutoxyethoxy)isoquinolin-6-yl)amino)-nicotinamide], the 50% inhibitory concentration (IC50) is less than 10 nM.

For `NC(=O)c1cc(F)c(N[C@@H]2CCCC[C@@H]2N)nc1Nc1ccc2c(OCC3CCCO3)nccc2c1` (relative stereo) [Example 004-171, 6-(cis-2-aminocyclohexylamino)-5-fluoro-2-((1-((tetrahydrofuran-2-yl)-methoxy)isoquinolin-6-yl)amino)nicotinamide], the IC50 is less than 10 nM.

Turning to `CCOc1ccc2cc(Nc3nc(N[C@@H]4CCCC[C@@H]4N)c(F)cc3C(N)=O)cnc2c1` (relative stereo) [Example 004-173, 6-(cis-2-aminocyclohexylamino)-2-((7-ethoxyquinolin-3-yl)amino)-5-fluoronicotinamide], the IC50 was less than 10 nM.

Consider `CCCOc1ccc2cc(Nc3nc(N[C@@H]4CCCC[C@@H]4N)c(F)cc3C(N)=O)cnc2c1` (relative stereo) [Example 004-174, 6-(cis-2-aminocyclohexylamino)-5-fluoro-2-((7-propoxyquinolin-3-yl)amino)nicotinamide], for which the IC50 was less than 10 nM.

As to `CCOc1cnc2cc(Nc3nc(N[C@@H]4CCCC[C@@H]4N)c(F)cc3C(N)=O)ccc2n1` (relative stereo) [Example 004-176, 6-(cis-2-aminocyclohexylamino)-2-((2-ethoxyquinoxalin-6-yl)amino)-5-fluoronicotinamide], the half-maximal inhibitory concentration (IC50) is less than 10 nM.

As to `CCCOc1cnc2cc(Nc3nc(N[C@@H]4CCCC[C@@H]4N)c(F)cc3C(N)=O)ccc2n1` (relative stereo) [Example 004-177, 6-(cis-2-aminocyclohexylamino)-5-fluoro-2-((2-propoxyquinoxalin-6-yl)amino)nicotinamide], the half-inhibitory concentration (IC50) is 10 to 50 nM.

As to `COCCOc1cnc2cc(Nc3nc(N[C@@H]4CCCC[C@@H]4N)c(F)cc3C(N)=O)ccc2n1` (relative stereo) [Example 004-178, 6-(cis-2-aminocyclohexylamino)-5-fluoro-2-((2-(2-methoxyethoxy)quinoxalin-6-yl)amino)-nicotinamide], the IC50 was 10 to 50 nM.

Consider `COCCOCCOc1cnc2cc(Nc3nc(N[C@@H]4CCCC[C@@H]4N)c(F)cc3C(N)=O)ccc2n1` (relative stereo) [Example 004-179, 6-(cis-2-aminocyclohexylamino)-5-fluoro-2-((2-(2-(2-methoxyethoxy)ethoxy)quinoxalin-6-yl)amino)nicotinamide], for which the IC50 was less than 10 nM.

Values taken from patent publication US8895585B2, “Nicotinamide derivative or salt thereof” (FUJIFILM Corporation, priority 2010, dated 2014).
